Measured values from PubChem BioAssay (NCI).
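These data come from cells grown in 96-well plates and exposed to compound for 48 hours at five concentrations. TGI marks complete inhibition of growth.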

What was measured:
Experiment in all cases: NCI tumour cell line growth inhibition, 48 h
DU-145 prostate = system: DU-145 prostate
MDA-N = system: MDA-N
HS 578T breast = system: HS 578T breast
MDA-MB-231 breast = system: MDA-MB-231 breast
OVCAR-4 ovarian = system: OVCAR-4 ovarian
SF-268 CNS = system: SF-268 CNS
SNB-75 CNS = system: SNB-75 CNS
NCI/ADR-RES ovarian = system: NCI/ADR-RES ovarian
HT29 colon = system: HT29 colon
EKVX NSCLC = system: EKVX NSCLC

Row | SMILES | TGI (DU-145 prostate) [µM] | TGI (MDA-N) [µM] | TGI (HS 578T breast) [µM] | TGI (MDA-MB-231 breast) [µM] | TGI (OVCAR-4 ovarian) [µM] | TGI (SF-268 CNS) [µM] | TGI (SNB-75 CNS) [µM] | TGI (NCI/ADR-RES ovarian) [µM] | TGI (HT29 colon) [µM] | TGI (EKVX NSCLC) [µM]
1 | CC(C)(C)C(=O)C(N)C(=O)C(C)(C)C | > 100 | > 100 | > 100 | > 100 | > 100 | > 100 | > 100 | > 100 | – | –
2 | N#CC(c1cc(Cl)ncn1)c1nc2cc(C(F)(F)F)ccc2s1 (centres undefined) | > 100 | 15.7 | – | 33.9 | 19.5 | 19.4 | 25.4 | 9.5 | 12.3 | 32.3
3 | CC1CC(C)(C)CC(OCCN2CCCCC2)(c2ccccc2)C1 (centres undefined) | 19.8 | – | 32.4 | 24.9 | 24 | 23.9 | 28.8 | 33.9 | 9.92 | 19.5
4 | O=C(c1ccccc1)C1C(c2ccccc2[N+](=O)[O-])N1C1CCCCC1 (centres undefined) | 22.6 | 19.7 | 49.3 | 23 | 22.7 | 38.3 | – | > 85.2 | 16.4 | 30.8
5 | CCOC(=O)CCC(C(=O)OCC)n1nnc2cc(Nc3c(C)[n+]([O-])c4cc(Cl)ccc4[n+]3[O-])ccc21 (centres undefined) | > 100 | > 100 | > 100 | – | > 100 | > 100 | > 100 | > 100 | > 100 | 71.9
6 | O=c1ccc(=O)c2c1c1[nH]c3ccccc3c1c1c(=O)c3ccccc3c(=O)c21 | > 10 | – | > 10 | > 10 | > 10 | > 10 | > 10 | > 10 | > 10 | > 10
7 | N#Cc1cc2c(n(C3OC(CO)C(O)C(O)C3O)c1=S)CCC2 (centres undefined) | > 100 | > 100 | > 100 | > 100 | > 100 | > 100 | > 100 | > 100 | > 100 | –
8 | Cc1cc(Br)c(O)c(-c2cscn2)c1 | – | – | 52.4 | – | 28.7 | – | – | 56.9 | > 100 | 96.1
9 | O=c1[nH]c2ccccc2c(=O)n1/N=C\c1ccccc1O | > 100 | > 100 | > 100 | > 100 | – | > 100 | > 100 | – | > 100 | > 100
10 | FC(F)(Sc1ncccn1)c1nc2ccccc2o1 | > 100 | > 100 | – | > 100 | > 100 | > 100 | 81.2 | > 100 | > 100 | –
11 | COc1cc(CNc2nc3c(NC(C)=O)cc(C(F)(F)F)cc3nc2-c2ccccc2)cc(OC)c1OC | – | – | – | – | > 100 | > 100 | – | – | – | > 100
12 | Nc1ncnc2c1ncn2C1C(O)C=C(CO)C1O (centres undefined) | – | – | – | – | > 625 | > 625 | – | > 625 | > 625 | –
13 | C/C(=C\C(=O)O)C(=O)N(C)c1ccccc1I | > 100 | > 100 | > 100 | > 100 | > 100 | > 100 | > 100 | > 100 | – | > 100
14 | CCn1c(-c2cc3ccccc3cc2OC(C)=O)n[nH]c1=S | 81.1 | – | 54.6 | 80.4 | > 100 | > 100 | – | 60.9 | > 100 | 57.9
15 | CCOC(=O)NC(Nc1ccc(C(=O)O)cc1)(C(F)(F)F)C(F)(F)F | > 100 | > 100 | > 100 | > 100 | – | > 100 | > 100 | > 100 | > 100 | > 100
16 | CCOC(=O)CCC(NC(=O)c1ccc(NCc2ccc3nc(OC)c(OC)nc3c2)c2ccccc12)C(=O)OCC (centres undefined) | > 100 | > 100 | – | > 100 | > 100 | > 100 | > 100 | > 100 | > 100 | > 100
17 | COC(=O)c1c2c(cc3c1CC1(Cc4cc5c(cc4C1)CCCC5)C3)CCCC2 | – | > 100 | > 100 | > 100 | > 100 | – | – | > 100 | > 100 | > 100
18 | CN1CCN(Cc2ccc(C(=S)Nc3ccccc3)s2)CC1 | > 100 | > 100 | > 100 | – | > 100 | > 100 | – | > 100 | 47.1 | > 100
19 | CCCCCCCCCCCCCCCCOC[C@H](COC(c1ccccc1)(c1ccccc1)c1ccccc1)O[P+](=S)OC (some centres undefined) | > 100 | > 100 | > 100 | > 100 | – | > 100 | > 100 | > 100 | > 100 | > 100
20 | CSC1=C(C)C(/C=N/Nc2ccc([N+](=O)[O-])cc2)=C(C)N(c2ccccc2)S1(=O)=O | > 100 | > 100 | – | > 100 | > 100 | > 100 | > 100 | > 100 | > 100 | > 100
21 | CC1OC23CCCCC2C(C#N)(C#N)C1(C#N)C(=N)O3 (centres undefined) | 66.5 | 35.8 | 57.8 | 32.1 | – | 60.3 | > 100 | > 100 | > 100 | 91.1
22 | O=C(Nc1nnc(-c2ccccc2)o1)C(SC(=S)N1CCCC1)c1ccccc1 (centres undefined) | > 100 | > 100 | > 100 | > 100 | > 100 | – | > 100 | 60.1 | > 100 | 68
23 | COc1cc(-c2cc(OC)c(OC)c3ccc(Br)cc23)c2cc(Br)ccc2c1OC | 93.4 | 42.7 | 94.4 | 49.5 | 31.1 | 50.8 | – | 90.1 | > 100 | > 100
24 | COC1=C(OC)C(=O)C(Cc2c(-c3ccccc3)nc3sc(Cl)cn23)=C(C)C1=O | 49.1 | 34.2 | 44.3 | 24.6 | 18.8 | 41.2 | – | 39.9 | 41.7 | 41.6
